Experimental data published in patent US11439707B2, “Hypocrellin derivative substituted both in a peri-position and in 2-position by amino, preparation method, and application thereof” (priority 2017, dated 2022).

Tests used:
[1] = absorption spectrum (maximum absorption wavelength, molar extinction coefficient); assay type: physicochemical
[2] = singlet oxygen efficiency test, reference rose bengal; assay type: physicochemical

| Structure (SMILES) | maximum absorption wavelength [1] [nm] | molar extinction coefficient [1] | singlet oxygen yield [2] [%] |
| --- | --- | --- | --- |
| COCCOCCC(=O)N1CCC(CNc2c(NCC3CCN(C(=O)CCOCCOC)CC3)c3c(=O)cc(OC)c4c5c(OC)cc(=O)c6c(O)c(OC)c7c(c(c2C=C(C)C7C(C)=O)c34)c65)CC1 (stereo not drawn) [HB-31a-PEG1] | 622 | 32,000 M^−1cm^−1 | 32 |
| COCCOCCOCCOCCOCCOCCOCCC(=O)N1CCC(CNc2c(O)c3c(=O)c(Br)c(OC)c4c5c(OC)cc(=O)c6c(NCC7CCN(C(=O)CCOCCOCCOCCOCCOCCOCCOC)CC7)c(OC)c7c(c(c2C=C(C)C7C(C)=O)c34)c65)CC1 (stereo not drawn) [HB-31b-Br-PEG6] | 624 | 31,500 M^−1cm^−1 | 31 |
| COCCOCCOCCOCCOCCOCCOCCC(=O)N1CCC(CNc2c(O)c3c(=O)cc(OC)c4c5c(OC)cc(=O)c6c(NCC7CCN(C(=O)CCOCCOCCOCCOCCOCCOCCOC)CC7)c(OC)c7c(c(c2C=C(C)C7C(C)=O)c34)c65)CC1 (stereo not drawn) [HB-31b-PEG6] | 622 | 31,000 M^−1cm^−1 | 38 |
| COCCOCCOCCOCCOCCOCCOCCC(=O)N1CCC(CNc2c3c4c5c(c(OC)c(=O)c6c(O)cc(OC)c(c7c(OC)c(Br)c(NCC8CCN(C(=O)CCOCCOCCOCCOCCOCCOCCOC)CC8)c(c2=O)c47)c65)C(C(C)=O)C(C)=C3)CC1 (stereo not drawn) [HB-31c-Br-PEG6] | 631 | 33,000 M^−1cm^−1 | 38 |
| COCCOCCOCCOCCOCCOCCOCCC(=O)N1CCC(CNc2c3c4c5c(c(OC)c(=O)c6c(O)cc(OC)c(c7c(OC)cc(NCC8CCN(C(=O)CCOCCOCCOCCOCCOCCOCCOC)CC8)c(c2=O)c74)c65)C(C(C)=O)C(C)=C3)CC1 (stereo not drawn) [HB-31c-PEG6] | 632 | 33,500 M^−1cm^−1 | 40 |
| COCCOCCOCCOCCOCCOCCOCCOCCOCCOCCOCCOCCOCCC(=O)N1CCC(CNc2c3c4c5c(c(OC)c(=O)c6c(NCC7CCN(C(=O)CCOCCOCCOCCOCCOCCOCCOCCOCCOCCOCCOCCOCCOC)CC7)cc(OC)c(c7c(OC)c(Br)c(O)c(c2=O)c47)c65)C(C(C)=O)C(C)=C3)CC1 (stereo not drawn) [HB-31d-Br-PEG12] | 632 | 31,500 M^−1cm^−1 | 33 |
| COCCOCCN1CCC(CNc2c(NCC3CCN(CCOCCOC)CC3)c3c(=O)cc(OC)c4c5c(OC)cc(=O)c6c(O)c(OC)c7c(c(c2C=C(C)C7C(C)=O)c34)c65)CC1 (stereo not drawn) [HB-32a-PEG1] | 622 | 32,000 M^−1cm^−1 | 32 |
| COCCOCCOCCOCCOCCOCCOCCN1CCC(CNc2c(O)c3c(=O)cc(OC)c4c5c(OC)cc(=O)c6c(NCC7CCN(CCOCCOCCOCCOCCOCCOCCOC)CC7)c(OC)c7c(c(c2C=C(C)C7C(C)=O)c34)c65)CC1 (stereo not drawn) [HB-32b-PEG6] | 622 | 31,000 M^−1cm^−1 | 38 |
| COCCOCCOCCOCCOCCOCCOCCN1CCC(CNc2c3c4c5c(c(OC)c(=O)c6c(O)cc(OC)c(c7c(OC)cc(NCC8CCN(CCOCCOCCOCCOCCOCCOCCOC)CC8)c(c2=O)c74)c65)C(C(C)=O)C(C)=C3)CC1 (stereo not drawn) [HB-32c-PEG6] | 632 | 33,500 M^−1cm^−1 | 40 |
| COCCOCCOCCOCCOCCOCCOCCOCCOCCOCCOCCOCCOCCN1CCC(CNc2c3c4c5c(c(OC)c(=O)c6c(NCC7CCN(CCOCCOCCOCCOCCOCCOCCOCCOCCOCCOCCOCCOCCOC)CC7)cc(OC)c(c7c(OC)cc(O)c(c2=O)c74)c65)C(C(C)=O)C(C)=C3)CC1 (stereo not drawn) [HB-32d-PEG12] | 632 | 31,500 M^−1cm^−1 | 33 |
| CCCNc1c(NCCC)c2c(=O)cc(OC)c3c4c(OC)cc(=O)c5c(O)c(OC)c6c(c(c1C=C(C)C6C(C)=O)c23)c54 (stereo not drawn) [HB-33a] | 618 | 32,500 M^−1cm^−1 | 30 |
